Reference: patent US6458387B1, “Sustained release microspheres” (priority 1999, dated 2002)

Key:
[1] = human serum albumin microspheres; 0.01M, 0.1M or 1M zinc sulfate
Protocol: Nafarelin acetate (Roche Laboratories, Nutley, N.J.) was dissolved in deionized water to produce a 10 mg/ml solution.
To 1 mg of nafarelin acetate was added 10 mg of the human serum albumin microspheres. The mixture was vortexed and mixed for 16 hours at 4° C. A 3M ammonium sulfate solution was added to the mixture to a final concentration of 0.5M and vortexed and mixed for 15 minutes at ambient temperature.
The mixtures were centrifuged, supernatant decanted and pellet resuspended in deionized water three times to wash the microspheres.

[2] = In vitro release from leuprolide acetate/HSA microspheres (Example 5); format: physicochemical; details: leuprolide acetate/HSA/dextran sulfate/PEG/PVP microspheres
Protocol: A 0.010 mL aliquot of a solution of 10-100 mg/mL leuprolide acetate in water (LHRH, TAP Pharmaceuticals, Deerfield, Ill.) was added to 0.168 mL of a 2-10% (weight/volume) solution of dextran sulfate in water (average molecular weight 500 kDa), and the solution was thoroughly mixed. To the leuprolide/dextran solution was added a 0.856 niL aliquot of a solution containing 25% (weight/volume) polyethylene glycol, having an average molecular weight of 3.35 kDa (Spectrum, Gardena, Calif.), and 25% (weight/volume) polyvinylpyrrolidone, having an average molecular weight of 40 kDa, in an aqueous solution of 0.1M sodium acetate, pH 5.5. The resulting solution was thoroughly mixed and allowed to stand for up to 30 minutes. A 0.25 mL aliquot of a 20% (weight/volume) solution of human serum albumin (Sigma Chemical Co., St. Louis, Mo.) in water was then added to the solution. The final solution was thoroughly mixed and placed in a water bath at between 70° C. and 90° C. for a period of time between 30 minutes and 3 hours.
In vitro release of leuprolide acetate was measured by centrifugation of microspheres and resuspension in a phosphate buffered saline release medium.

[3] = design: species or system dogs; details: dog
Protocol: The microspheres were formed and precipitated from solution. […] Estradiol was then loaded into human serum albumin microspheres at 3 different weight percent loadings. The estradiol was dissolved in ethyl alcohol and incubated in the presence of the albumin microspheres. […] The 10% by weight estradiol containing microspheres contained 1 mg of estradiol and 8.33 mg of Human Serum Albumin (HSA). The 49% by weight estradiol containing microspheres contained 8.15 mg of estradiol and 8.33 mg of HSA. The 77% by weight estradiol containing microspheres contained 27.68 mg of estradiol and 8.33 mg of HSA
The microspheres were injected into five dogs and the resulting serum concentrations were determined by radioimmuno assay for estradiol.

[4] = HSA microspheres, carbonyl diimidazole coupling
Protocol: Carbonyl diimidazole (100 mg, Sigma Chemical Co., St. Louis, Mo.) was added to a solution of 36 mg of the antiviral drug Virazole Registered TM (ICN Pharmaceuticals, Inc., Costa Mesa, Calif.) in 0.2 ml of dimethylformamide (DMF). The resulting mixture was allowed to stand at room temperature for four hours. To the mixture was added a mixture of 0.2 ml of human serum albumin (HSA) (25%, Armour Pharmaceutical Co., Collegeville, Pa.) and 0.4 ml of deionized water. The mixture was incubated for 30 minutes at room temperature, for 30 minutes at 37° C., and for 30 minutes at 58° C. and then cooled to room temperature. Particles were isolated by centrifugation, washed with deionized water three times and resuspended in 20 ml of water.

Row | SMILES | effect of additive on release of protein and peptide from the microspheres [2] | percentage of drug incorporated into the particles [4] | also measured
1 | O=S(=O)([O-])[O-].[Zn+2] [zinc sulfate] | retarded the release |  | effect of additive on rate of release of nafarelin acetate [1]: reduced the rate of release
2 | C[C@]12CC[C@@H]3c4ccc(O)cc4CC[C@H]3[C@@H]1CC[C@@H]2O [estradiol control, estradiol] |  |  | half life of estradiol in vivo [3]: shortest half life
3 | NC(=O)c1ncn([C@@H]2O[C@H](CO)[C@@H](O)[C@H]2O)n1 [Virazole Registered TM] |  | 10% | 
4 | CCCCCCCC(=O)O [caprylic acid] | retarded the release |  | 
5 | CO[C@H]1/C=C/O[C@@]2(C)Oc3c(C)c(O)c4c(O)c(c(/C=N/N5CCN(C)CC5)c(O)c4c3C2=O)NC(=O)/C(C)=C\C=C\[C@H](C)[C@H](O)[C@@H](C)[C@@H](O)[C@@H](C)[C@H](OC(C)=O)[C@@H]1C [Rifampicin TM, 3-[4-methylpiperazinyliminomethyl] rifamycin] |  | greater than 6.8% | 
